Measured values taken from US9611277B2 (Janssen Pharmaceutica NV, priority 2013, dated 2017).

Assays:
human orexin 2 receptor = human orexin 2 receptor (Homo sapiens (Human), UniProt O43614); assay: Human orexin 2 receptor radioligand binding; conditions: human orexin 2 receptor; averages of 2-20 runs; read-out: hOX2 Ki
Procedure, shortened: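 Ki derived from one-site competition IC50 using predetermined Kd of [3H]-EMPA, triplicate points, 2-20 runs averaged. Binding done on homogenized HEK293 cells stably expressing human orexin 2 receptor, DMSO ≤0.1%, with 10 μM almorexant defining nonspecific binding; filtered, washed, scintillation counted.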

rat orexin 1 receptor = rat orexin 1 receptor (Rattus norvegicus, UniProt P56718); assay: Rat orexin 1 receptor radioligand binding; conditions: rat orexin 1 receptor; averages of 2-20 runs; read-out: rOX1 Ki
Procedure, shortened: (§1)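 Ki values derive from one-site competition IC50s corrected with the radioligand's predetermined Kd, triplicates per run, averaged over 2-20 runs. Cell homogenates (rat or human OX1R) compete against [^3H]-thiazolyl-oxadiazolyl-pyrrolidine methanone in PBS; 10 μM almorexant sets nonspecific binding; scintillation counting after washing.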

human orexin 1 receptor = human orexin 1 receptor (Homo sapiens, UniProt O43613); assay: Human orexin 1 receptor radioligand binding; conditions: human orexin 1 receptor; averages of 2-20 runs; read-out: hOX1 Ki
Procedure, shortened: as §1

Chain of human orexin 2 receptor (O43614 whole entry): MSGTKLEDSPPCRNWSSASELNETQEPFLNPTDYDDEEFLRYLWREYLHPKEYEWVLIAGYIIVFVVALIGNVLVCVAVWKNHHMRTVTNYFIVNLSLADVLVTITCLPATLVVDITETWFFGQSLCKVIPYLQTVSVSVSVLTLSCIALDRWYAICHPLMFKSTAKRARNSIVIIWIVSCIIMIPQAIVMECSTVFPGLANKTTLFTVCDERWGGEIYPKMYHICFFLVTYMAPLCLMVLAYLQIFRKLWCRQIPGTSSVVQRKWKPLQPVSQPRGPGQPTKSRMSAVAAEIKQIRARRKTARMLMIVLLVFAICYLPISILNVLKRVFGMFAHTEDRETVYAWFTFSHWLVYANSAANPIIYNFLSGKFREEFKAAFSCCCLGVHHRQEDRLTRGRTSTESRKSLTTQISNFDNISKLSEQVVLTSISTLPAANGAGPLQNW

Structure (SMILES) | Ki (human orexin 2 receptor) [nM] | Ki (rat orexin 1 receptor) [nM] | Ki (human orexin 1 receptor) [nM]
O=C(c1ccccc1-c1ncccn1)N1C[C@H]2C[C@@H](Nc3cnc(Cl)cn3)[C@@H]1C2 [Example 215, ((1S,4S,6R)-6-((5-chloropyrazin-2-yl)amino)-2-azabicyclo[2.2.1]heptan-2-yl)(2-(pyrimidin-2-yl)phenyl)methanone] | 435 | 12 | 13
Cc1cnc(N[C@@H]2C[C@H]3C[C@@H]2N(C(=O)c2cccc(F)c2-n2nccn2)C3)cn1 [Example 217, (3-fluoro-2-(2H-1,2,3-triazol-2-yl)phenyl)((1S,4S,6R)-6-((5-methylpyrazin-2-yl)amino)-2-azabicyclo[2.2.1]heptan-2-yl)methanone] | 390 | 12 | 29
Cc1cnc(N[C@@H]2C[C@H]3C[C@@H]2N(C(=O)c2cc(F)ccc2-n2nccn2)C3)cn1 [Example 218, (5-fluoro-2-(2H-1,2,3-triazol-2-yl)phenyl)((1S,4S,6R)-6-((5-methylpyrazin-2-yl)amino)-2-azabicyclo[2.2.1]heptan-2-yl)methanone] | 490 | 31 | 49
Cc1cnc(N[C@@H]2C[C@H]3C[C@@H]2N(C(=O)c2cccc(F)c2-c2ncccn2)C3)cn1 [Example 219, (3-fluoro-2-(pyrimidin-2-yl)phenyl)((1S,4S,6R)-6-((5-methylpyrazin-2-yl)amino)-2-azabicyclo[2.2.1]heptan-2-yl)methanone] | 480 | 20 | 27
Cc1cnc(N[C@@H]2C[C@H]3C[C@@H]2N(C(=O)c2ccccc2-c2ncccn2)C3)cn1 [Example 220, ((1S,4S,6R)-6-((5-methylpyrazin-2-yl)amino)-2-azabicyclo[2.2.1]heptan-2-yl)(2-(pyrimidin-2-yl)phenyl)methanone] | 284 | 11 | 17
O=C(c1cccc(F)c1-n1nccn1)N1C[C@H]2C[C@@H](Nc3ncc(C(F)(F)F)cn3)[C@@H]1C2 [Example 223, (3-fluoro-2-(2H-1,2,3-triazol-2-yl)phenyl)((1S,4S,6R)-6-((5-(trifluoromethyl)pyrimidin-2-yl)amino)-2-azabicyclo[2.2.1]heptan-2-yl)methanone] | 619 | 11 | 6
O=C(c1ccc(F)cc1-n1nccn1)N1C[C@H]2C[C@@H](Nc3ncc(C(F)(F)F)cn3)[C@@H]1C2 [Example 224, (4-fluoro-2-(2H-1,2,3-triazol-2-yl)phenyl)((1S,4S,6R)-6-((5-(trifluoromethyl)pyrimidin-2-yl)amino)-2-azabicyclo[2.2.1]heptan-2-yl)methanone] | 1900 | 37 | 33
O=C(c1cc(F)ccc1-n1nccn1)N1C[C@H]2C[C@@H](Nc3ncc(C(F)(F)F)cn3)[C@@H]1C2 [Example 225, (5-fluoro-2-(2H-1,2,3-triazol-2-yl)phenyl)((1S,4S,6R)-6-((5-(trifluoromethyl)pyrimidin-2-yl)amino)-2-azabicyclo[2.2.1]heptan-2-yl)methanone] | 800 | 20 | 16
O=C(c1c(F)cccc1-n1nccn1)N1C[C@H]2C[C@@H](Nc3ncc(C(F)(F)F)cn3)[C@@H]1C2 [Example 226, (2-fluoro-6-(2H-1,2,3-triazol-2-yl)phenyl)((1S,4S,6R)-6-((5-(trifluoromethyl)pyrimidin-2-yl)amino)-2-azabicyclo[2.2.1]heptan-2-yl)methanone] | 874 | 17 | 19
O=C(c1ccc(F)cc1-c1ncccn1)N1C[C@H]2C[C@@H](Nc3ncc(C(F)(F)F)cn3)[C@@H]1C2 [Example 227, (4-fluoro-2-(pyrimidin-2-yl)phenyl)((1S,4S,6R)-6-((5-(trifluoromethyl)pyrimidin-2-yl)amino)-2-azabicyclo[2.2.1]heptan-2-yl)methanone] | 3100 | 12 | 13
O=C(c1cc(F)ccc1-c1ncccn1)N1C[C@H]2C[C@@H](Nc3ncc(C(F)(F)F)cn3)[C@@H]1C2 [Example 228, (5-fluoro-2-(pyrimidin-2-yl)phenyl)((1S,4S,6R)-6-((5-(trifluoromethyl)pyrimidin-2-yl)amino)-2-azabicyclo[2.2.1]heptan-2-yl)methanone] | 544 | 11 | 9
O=C(c1c(F)cccc1-c1ncccn1)N1C[C@H]2C[C@@H](Nc3ncc(C(F)(F)F)cn3)[C@@H]1C2 [Example 229, (2-fluoro-6-(pyrimidin-2-yl)phenyl)((1S,4S,6R)-6-((5-(trifluoromethyl)pyrimidin-2-yl)amino)-2-azabicyclo[2.2.1]heptan-2-yl)methanone] | 724 | 9 | 11
O=C(c1ccccc1-c1ncccn1)N1C[C@H]2C[C@@H](Nc3ncc(C(F)(F)F)cn3)[C@@H]1C2 [Example 230, (2-(pyrimidin-2-yl)phenyl)((1S,4S,6R)-6-((5-(trifluoromethyl)pyrimidin-2-yl)amino)-2-azabicyclo[2.2.1]heptan-2-yl)methanone] | 470 | 4 | 4
O=C(c1ccccc1-c1ncc(F)cn1)N1C[C@H]2C[C@@H](Nc3ncc(C(F)(F)F)cn3)[C@@H]1C2 [Example 231, (2-(5-fluoropyrimidin-2-yl)phenyl)((1S,4S,6R)-6-((5-(trifluoromethyl)pyrimidin-2-yl)amino)-2-azabicyclo[2.2.1]heptan-2-yl)methanone] | 1300 | 9 | 12
O=C(c1c(F)cccc1-c1ncco1)N1C[C@H]2C[C@@H](Nc3ncc(C(F)(F)F)cn3)[C@@H]1C2 [Example 232, (2-fluoro-6-(oxazol-2-yl)phenyl)((1S,4S,6R)-6-((5-(trifluoromethyl)pyrimidin-2-yl)amino)-2-azabicyclo[2.2.1]heptan-2-yl)methanone] | 1350 | 24 | 25
O=C(c1cccc(F)c1-n1nccn1)N1C[C@H]2C[C@@H](Nc3ncc(Cl)cn3)[C@@H]1C2 [Example 234, ((1S,4S,6R)-6-((5-chloropyrimidin-2-yl)amino)-2-azabicyclo[2.2.1]heptan-2-yl)(3-fluoro-2-(2H-1,2,3-triazol-2-yl)phenyl)methanone] | 827 | 17 | 12
O=C(c1cc(F)ccc1-n1nccn1)N1C[C@H]2C[C@@H](Nc3ncc(Cl)cn3)[C@@H]1C2 [Example 235, ((1S,4S,6R)-6-((5-chloropyrimidin-2-yl)amino)-2-azabicyclo[2.2.1]heptan-2-yl)(5-fluoro-2-(2H-1,2,3-triazol-2-yl)phenyl)methanone] | 1300 | 36 | 41
O=C(c1cccc(F)c1-c1ncccn1)N1C[C@H]2C[C@@H](Nc3ncc(Cl)cn3)[C@@H]1C2 [Example 236, ((1S,4S,6R)-6-((5-chloropyrimidin-2-yl)amino)-2-azabicyclo[2.2.1]heptan-2-yl)(3-fluoro-2-(pyrimidin-2-yl)phenyl)methanone] | 1020 | 10 | 9
O=C(c1ccc(F)cc1-c1ncccn1)N1C[C@H]2C[C@@H](Nc3ncc(Cl)cn3)[C@@H]1C2 [Example 237, ((1S,4S,6R)-6-((5-chloropyrimidin-2-yl)amino)-2-azabicyclo[2.2.1]heptan-2-yl)(4-fluoro-2-(pyrimidin-2-yl)phenyl)methanone] | 1900 | 32 | 13
O=C(c1c(F)cccc1-c1ncccn1)N1C[C@H]2C[C@@H](Nc3ncc(Cl)cn3)[C@@H]1C2 [Example 239, ((1S,4S,6R)-6-((5-chloropyrimidin-2-yl)amino)-2-azabicyclo[2.2.1]heptan-2-yl)(2-fluoro-6-(pyrimidin-2-yl)phenyl)methanone] | 726 | 23 | 41
O=C(c1ccccc1-c1ncccn1)N1C[C@H]2C[C@@H](Nc3ncc(Cl)cn3)[C@@H]1C2 [Example 240, ((1S,4S,6R)-6-((5-chloropyrimidin-2-yl)amino)-2-azabicyclo[2.2.1]heptan-2-yl)(2-(pyrimidin-2-yl)phenyl)methanone] | 831 | 17 | 12
O=C(c1ccccc1-n1nccn1)N1C[C@H]2C[C@@H](Nc3ccc(C(F)(F)F)nn3)[C@@H]1C2 [Example 242, (2-(2H-1,2,3-triazol-2-yl)phenyl)((1S,4S,6R)-6-((6-(trifluoromethyl)pyridazin-3-yl)amino)-2-azabicyclo[2.2.1]heptan-2-yl)methanone] | 2100 | 89 | 113
Cc1ccc(-n2nccn2)c(C(=O)N2C[C@H]3C[C@@H](Nc4ccc(C(F)(F)F)nn4)[C@@H]2C3)n1 [Example 243, (6-methyl-3-(2H-1,2,3-triazol-2-yl)pyridin-2-yl)((1S,4S,6R)-6-((6-(trifluoromethyl)pyridazin-3-yl)amino)-2-azabicyclo[2.2.1]heptan-2-yl)methanone] | 1800 | 112 | 131
Cc1ccc(-c2ncccn2)c(C(=O)N2C[C@H]3C[C@@H](Nc4ccc(C(F)(F)F)nn4)[C@@H]2C3)n1 [Example 244, (6-methyl-3-(pyrimidin-2-yl)pyridin-2-yl)((1S,4S,6R)-6-((6-(trifluoromethyl)pyridazin-3-yl)amino)-2-azabicyclo[2.2.1]heptan-2-yl)methanone] | 1700 | 114 | 143
